Measured values from patent US20240190874A1, “SMALL MOLECULE DEGRADERS OF ANDROGEN RECEPTOR” (THE REGENTS OF THE UNIVERSITY OF MICHIGAN, priority 2021, published 2024).

How the values were obtained:
Type in all cases: cell-based
AR = target: T1, AR (Homo sapiens, UniProt P10275); test: Degradation of AR in VCaP cells; conditions: for Dmax: VCaP
T1 construct: Degradation of AR; Cellular potency; host or cells: VCaP cells
T1 sequence (P10275 1-920): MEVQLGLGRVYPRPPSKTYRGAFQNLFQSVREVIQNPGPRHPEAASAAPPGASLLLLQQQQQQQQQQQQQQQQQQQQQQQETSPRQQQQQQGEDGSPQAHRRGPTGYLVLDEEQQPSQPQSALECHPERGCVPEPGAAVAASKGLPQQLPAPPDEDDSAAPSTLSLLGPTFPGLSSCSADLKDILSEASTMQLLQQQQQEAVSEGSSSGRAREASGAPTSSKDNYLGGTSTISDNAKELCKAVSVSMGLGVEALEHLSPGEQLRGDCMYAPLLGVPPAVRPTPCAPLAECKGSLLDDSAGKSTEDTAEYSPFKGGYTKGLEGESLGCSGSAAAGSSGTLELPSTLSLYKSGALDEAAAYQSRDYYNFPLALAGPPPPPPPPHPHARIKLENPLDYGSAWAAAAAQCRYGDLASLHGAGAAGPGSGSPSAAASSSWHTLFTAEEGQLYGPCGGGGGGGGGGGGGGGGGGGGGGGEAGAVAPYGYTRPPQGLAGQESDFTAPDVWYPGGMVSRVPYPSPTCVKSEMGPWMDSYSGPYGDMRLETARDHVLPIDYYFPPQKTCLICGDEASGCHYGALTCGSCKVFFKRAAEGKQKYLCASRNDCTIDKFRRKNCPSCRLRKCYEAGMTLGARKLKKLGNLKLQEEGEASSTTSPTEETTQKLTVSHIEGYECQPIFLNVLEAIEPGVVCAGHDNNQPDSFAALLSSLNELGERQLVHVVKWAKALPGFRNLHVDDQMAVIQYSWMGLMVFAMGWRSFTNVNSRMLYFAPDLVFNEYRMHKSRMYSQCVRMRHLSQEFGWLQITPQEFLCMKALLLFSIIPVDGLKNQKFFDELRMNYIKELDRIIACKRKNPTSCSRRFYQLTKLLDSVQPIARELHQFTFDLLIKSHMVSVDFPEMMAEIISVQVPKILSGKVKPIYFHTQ
Method: (§1) Biological Assays. LNCaP and VCaP cells used were purchased from American Type Culture Collection (ATCC). LNCaP were grown in RPMI 1640 (Invitrogen) and VCaP cells were grown in DMEM with Glutamax (Invitrogen). All of the cells were supplemented with 10% fetal bovine serum (Invitrogen) at 37° C. in a humidified 5% CO2 incubator.

VCaP cells = test: Cellular potency (IC50) in VCaP cells; conditions: Homo sapiens, VCaP
Method: as §1

LNCaP cells = test: Cellular potency (IC50) in LNCaP cells; conditions: Homo sapiens, LNCaP
Method: as §1

Structure (SMILES)	DC50 (AR; VCaP cells)	Dmax (AR; VCaP cells)	IC50 (VCaP cells)	IC50 (LNCaP cells)	Dmax (AR)
C[C@H]1CC2(CCN(c3ccc(N4CCN(CC5(F)CN(c6ccc7c(c6)C(=O)N(C6CCC(=O)NC6=O)C7=O)C5)CC4)cc3)CC2)CN1c1ccc(C#N)c(Cl)c1 (some centres unmarked) [compound 84]	< 1 nM	> 90%	–	–	–
C[C@H]1CC2(CCN(c3ccc(CN4CCC(C5CCN(c6ccc7c(c6)C(=O)N(C6CCC(=O)NC6=O)C7=O)CC5)CC4)cn3)CC2)CN1c1ccc(C#N)c(Cl)c1 (stereo partly drawn) [compound 180, 2-chloro-4-((3S)-8-(5-((1′-(2-(2,6-dioxopiperidin-3-yl)-1,3-dioxoisoindolin-5-yl)-[4,4′-bipiperidin]-1-yl)methyl)pyridin-2-yl)-3-methyl-2,8-diazaspiro[4.5]decan-2-yl)benzonitrile]	–	–	< 100 nM	< 10 nM	–
C[C@H]1CC2(CCN(c3ccc(C4CCN(C(=O)CN5Cc6cc7c(cc6C5)C(=O)N(C5CCC(=O)NC5=O)C7=O)CC4)cc3)CC2)CN1c1ccc(C#N)c(Cl)c1 (some centres unmarked) [compound 15]	< 100 nM	> 90%	–	–	–
C[C@H]1CC2(CCN(c3ccc(N4CCN(CC5(F)CN(c6ccc7c(c6)C(=O)N(C6CCC(=O)NC6=O)C7=O)C5)CC4)cn3)CC2)CN1c1ccc(C#N)c(Cl)c1 (some centres unmarked) [compound 88]	< 1 nM	> 90%	–	–	–
C[C@H]1CC2(CCN(c3ccc(N4CCN(CC5(F)CN(c6ccc7c(c6)C(=O)N(C6CCC(=O)NC6=O)C7=O)C5)CC4)nc3)CC2)CN1c1ccc(C#N)c(Cl)c1 (some centres unmarked) [compound 86]	< 1 nM	> 90%	–	–	–
COC1(CN2CCN(c3ccc(N4CCC5(CC4)C[C@H](C)N(c4ccc(C#N)c(Cl)c4)C5)cn3)CC2)CN(c2ccc3c(c2)C(=O)N(C2CCC(=O)NC2=O)C3=O)C1 (some centres unmarked) [compound 87]	< 1 nM	> 90%	–	–	–
COC1(CN2CCN(c3ccc(N4CCC5(CC4)C[C@H](C)N(c4ccc(C#N)c(Cl)c4)C5)cc3)CC2)CN(c2ccc3c(c2)C(=O)N(C2CCC(=O)NC2=O)C3=O)C1 (some centres unmarked) [compound 85]	< 1 nM	> 90%	–	–	–
C[C@H]1CC2(CCN(c3ccc(CN4CCN(C5CN(c6ccc7c(c6)C(=O)N(C6CCC(=O)NC6=O)C7=O)C5)CC4)nc3)CC2)CN1c1ccc(C#N)c(Cl)c1 (stereo partly drawn) [compound 169, 2-chloro-4-((3S)-8-(6-((4-(1-(2-(2,6-dioxopiperidin-3-yl)-1,3-dioxoisoindolin-5-yl)azetidin-3-yl)piperazin-1-yl)methyl)pyridin-3-yl)-3-methyl-2,8-diazaspiro[4.5]decan-2-yl)benzonitrile]	–	–	< 10 nM	< 10 nM	–
COC1(CN2Cc3cc4c(cc3C2)C(=O)N(C2CCC(=O)NC2=O)C4=O)CCN(C(=O)c2ccc(N3CCC4(CC3)C[C@H](C)N(c3ccc(C#N)c(F)c3)C4)cc2)CC1 (some centres unmarked) [compound 13]	< 100 nM	–	–	–	> 90%
COC1(CN2CCN(c3ccc(N4CCC5(CC4)C[C@H](C)N(c4ccc(C#N)c(Cl)c4)C5)nc3)CC2)CN(c2ccc3c(c2)C(=O)N(C2CCC(=O)NC2=O)C3=O)C1 (some centres unmarked) [compound 89]	< 1 nM	> 90%	–	–	–
C[C@H]1CC2(CCN(c3ccc(CN4CCN(C5CN(c6ccc7c(c6)C(=O)N(C6CCC(=O)NC6=O)C7=O)C5)CC4)cn3)CC2)CN1c1ccc(C#N)c(Cl)c1 (some centres unmarked) [compound 167]	–	–	< 10 nM	< 10 nM	–
C[C@H]1CC2(CCN(c3ccc(C(=O)C4CCN(CC(=O)N5Cc6cc7c(cc6C5)C(=O)N(C5CCC(=O)NC5=O)C7=O)CC4)cc3)CC2)CN1c1ccc(C#N)c(Cl)c1 (stereo partly drawn) [compound 147, 2-chloro-4-((3S)-8-(4-(1-(2-(6-(2,6-dioxopiperidin-3-yl)-5,7-dioxo-3,5,6,7-tetrahydropyrrolo[3,4-f]isoindol-2(1H)-yl)-2-oxoethyl)piperidine-4-carbonyl)phenyl)-3-methyl-2,8-diazaspiro[4.5]decan-2-yl)benzonitrile]	–	–	< 100 nM	< 10 nM	–
C[C@H]1CC2(CCN(c3ccc(S(=O)(=O)N4CCN(C5CCN(c6ccc7c(c6)C(=O)N(C6CCC(=O)NC6=O)C7=O)CC5)CC4)cc3)CC2)CN1c1ccc(C#N)c(Cl)c1 (some centres unmarked) [compound 1]	< 1 nM	> 90%	–	–	–
